Measured values reported in doi:10.1101/261990v1 (biorxiv, 2018).

Legend:
[1] = molecular target: T1, MGIC (Myoinhibitory peptide-Gated Ion Channel; ENaC5) (Platynereis dumerilii, UniProt A0A2S1B6I3); assay: two-electrode voltage clamp, Xenopus oocytes; format: cell-based; details: read-out: % of control current at 50 μM
T1 sequence (A0A2S1B6I3 1-589): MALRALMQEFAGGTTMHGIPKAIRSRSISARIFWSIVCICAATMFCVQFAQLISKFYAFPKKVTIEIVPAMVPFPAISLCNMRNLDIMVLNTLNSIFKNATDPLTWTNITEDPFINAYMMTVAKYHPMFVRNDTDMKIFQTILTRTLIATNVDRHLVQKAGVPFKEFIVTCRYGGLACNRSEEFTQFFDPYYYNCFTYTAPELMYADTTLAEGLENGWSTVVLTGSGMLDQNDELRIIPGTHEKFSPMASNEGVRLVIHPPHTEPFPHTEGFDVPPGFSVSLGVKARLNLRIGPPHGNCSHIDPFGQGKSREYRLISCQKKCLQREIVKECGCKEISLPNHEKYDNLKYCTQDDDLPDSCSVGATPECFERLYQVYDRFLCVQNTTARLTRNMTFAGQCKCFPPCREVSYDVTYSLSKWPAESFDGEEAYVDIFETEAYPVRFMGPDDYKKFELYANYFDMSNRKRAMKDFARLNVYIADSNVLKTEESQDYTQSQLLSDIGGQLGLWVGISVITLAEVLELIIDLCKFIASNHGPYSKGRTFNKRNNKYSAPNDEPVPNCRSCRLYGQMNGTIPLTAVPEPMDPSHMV

[2] = molecular target: T1, MGIC (Myoinhibitory peptide-Gated Ion Channel; ENaC5); assay: two-electrode voltage clamp, Xenopus oocytes; format: cell-based

SMILES | remaining activity at 50 µM [1] [%] | IC50 [2] [µM]
NC(=NC(=O)c1nc(Cl)c(N)nc1N)NCc1ccccc1 [benzamil] | 74 ± 3 | –
NC(=NC(=O)c1nc(Cl)c(N)nc1N)Nc1ccccc1 [phenamil] | 45 ± 4 | –
N=C(N)c1ccc(/N=N/Nc2ccc(C(=N)N)cc2)cc1 [diminazene] | – | 0.73 ± 0.16
N=C(N)NC(=O)c1nc(Cl)c(N)nc1N [amiloride] | – | 13 ± 2
